# US20260364215A1, “Radiopharmaceutical Compositions Targeting Ephrin Type-A Receptor 2 and Uses Thereof” (PeptiDream Inc., priority 2022, published 2026)
# Like-named read-outs stand apart in the source and are kept apart here. Numbered stars: 1 amine (or outer) side, 2 acyl side, 3 side chain; on linkers, the order of the positions; unused ones are H or OH. Bridge positions count the residues as written; N and C are the ends. Square brackets hold non-standard residues; d marks the D form. Side chains are listed from the residue outwards. Peptide text beside a SMILES is read from it. * marks the point of attachment. DOTA(Lu) = O=C1CN2CCN3CCN(CC(=O)*)CCN(CC2)CC(=O)[O][Lu]([O]1)[O]C(=O)C3; NH(1-deoxy-D-glucityl) = OC[C@@H](O)[C@@H](O)[C@H](O)[C@@H](O)CN*; DOTA = O=C(O)CN1CCN(CC(=O)O)CCN(CC(=O)*)CCN(CC(=O)O)CC1; Trp(1-Me,7-Cl) = Cn1cc(C[C@H](N)C(=O)O)c2cccc(Cl)c21; dPhe(3-CONH2) = NC(=O)c1cccc(C[C@@H](N)C(=O)O)c1; Piperazinyl(4-CH2COOH) = O=C(O)CN1CCN(*)CC1; Trp(1-Me) = Cn1cc(C[C@H](N)C(=O)O)c2ccccc21; PEG8 = NCCOCCOCCOCCOCCOCCOCCOCCOCCC(=O)O; NMemTyr = CN[C@@H](Cc1cccc(O)c1)C(=O)O; NMe3Pal = CN[C@@H](Cc1cccnc1)C(=O)O; hCit = NC(=O)NCCCC[C@H](N)C(=O)O; Gly(cBu) = N[C@H](C(=O)O)C1CCC1; NMeE = CN[C@@H](CCC(=O)O)C(=O)O; Aad = N[C@@H](CCCC(=O)O)C(=O)O; NMeN = CN[C@@H](CC(N)=O)C(=O)O; PEG2 = NCCOCCOCCC(=O)O; CO = O=C([*:1])[*:2]; βAla = NCCC(=O)O
# Biological target: T1, Recombinant Human EphA2 Fc Protein (Homo sapiens, UniProt P29317)
# T1 construct: purchased Elabscience
# Experiment: Interaction analysis (kinetics, KD) of peptides and conjugates against EphA2 by SPR, Biacore T200, single-cycle kinetics (Examples B15 and B22)
# Format: binding
# How it was run: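 Biacore T200 SPR with Fc-tagged human EphA2 captured via anti-human antibody; running buffer HBS-P+ pH 7.4 with 1% DMSO, 25 °C. Five serial dilutions of peptide or conjugate run by single-cycle kinetics; KD from ka and kd after baseline subtraction.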
# T1 sequence (P29317 24-534 limits assumed): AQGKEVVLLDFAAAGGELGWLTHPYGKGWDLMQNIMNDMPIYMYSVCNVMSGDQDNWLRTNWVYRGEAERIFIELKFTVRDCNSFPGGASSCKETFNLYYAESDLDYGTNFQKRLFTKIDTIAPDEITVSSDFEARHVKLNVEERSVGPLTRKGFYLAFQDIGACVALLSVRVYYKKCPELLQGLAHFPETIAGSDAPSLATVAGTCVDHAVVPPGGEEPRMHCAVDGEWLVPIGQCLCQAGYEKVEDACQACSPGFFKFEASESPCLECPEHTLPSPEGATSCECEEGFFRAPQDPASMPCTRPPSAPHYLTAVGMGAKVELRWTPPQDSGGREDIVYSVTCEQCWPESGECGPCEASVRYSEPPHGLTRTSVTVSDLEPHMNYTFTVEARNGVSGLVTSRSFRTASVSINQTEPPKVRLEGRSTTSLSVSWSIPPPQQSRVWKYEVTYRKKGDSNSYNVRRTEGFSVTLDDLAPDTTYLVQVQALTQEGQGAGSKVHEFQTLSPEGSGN
SMILES,Kd [nM],"Kd (conjugates, Biacore T200 according to Example B15, Table B16, read-out: SPR Kd) [nM]"
"C[C@@H](O)[C@@H]1NC(=O)[C@H](Cc2cn(C)c3ccccc23)NC(=O)[C@H](CCCCNC(=O)N2CCN(CC(=O)O)CC2)NC(=O)[C@H](Cc2cn(C)c3c(Cl)cccc23)NC(=O)[C@H](CCC(=O)O)N(C)C(=O)[C@H](CCCC(N)=O)NC(=O)[C@H](C2CCC2)NC(=O)[C@H](CC(N)=O)NC(=O)[C@H](Cc2cccc(O)c2)N(C)C(=O)[C@@H](Cc2cccc(C(N)=O)c2)NC(=O)CSC[C@@H](C(=O)N[C@H](CCCCNC(=O)CN2CCN3CCN4CCN(CC2)CC(=O)[O][Lu]([O]C(=O)C3)[O]C(=O)C4)C(N)=O)NC(=O)[C@H](CCCC(N)=O)NC1=O [PDC_EphA2-00022613-C302] ({CH2CO}-[dPhe(3-CONH2)][NMemTyr]N[Gly(cBu)][Aad](NH2)[NMeE][Trp(1-Me,7-Cl)]K([CO-Piperazinyl(4-CH2COOH)])[Trp(1-Me)]T[Aad](NH2)C[dK](DOTA(Lu))-NH2; thioether N-12)",< 1,
CC(C)C[C@@H]1NC(=O)[C@H](CC(N)=O)NC(=O)[C@H](Cc2cccnc2)N(C)C(=O)[C@@H](C)NC(=O)CSC[C@@H](C(=O)NCCC(=O)N[C@H](CCCCNC(=O)CCOCCOCCNC(=O)CCOCCOCCOCCOCCOCCOCCOCCOCCNC(=O)CN2CCN(CC(=O)O)CCN(CC(=O)O)CCN(CC(=O)O)CC2)C(N)=O)NC(=O)[C@H](CCCC(N)=O)NC(=O)[C@H]([C@@H](C)O)NC(=O)[C@H](Cc2cn(C)c3ccccc23)NC(=O)[C@H](CCCCNC(=O)N2CCN(CC(=O)O)CC2)NC(=O)[C@H](Cc2cn(C)c3ccccc23)NC(=O)[C@H](CCC(=O)O)N(C)C(=O)[C@H](CCCC(N)=O)NC1=O.[Lu+3] [PDC_EphA2-00007196-C304] ({CH2CO}-[dA][NMe3Pal]NL[Aad](NH2)[NMeE][Trp(1-Me)]K([CO-Piperazinyl(4-CH2COOH)])[Trp(1-Me)]T[Aad](NH2)C[βAla][dK]([PEG2-PEG8-DOTA])-NH2; thioether N-12),,< 1
"CN1C(=O)[C@H](CCCC(N)=O)NC(=O)[C@H](C2CCC2)NC(=O)[C@H](CC(N)=O)NC(=O)[C@H](Cc2cccnc2)N(C)C(=O)[C@@H](Cc2cccc(C(N)=O)c2)NC(=O)CSC[C@@H](C(=O)N[C@@H](CCCCNC(=O)CN2CCN3CCN4CCN(CC2)CC(=O)[O][Lu]([O]C(=O)C3)[O]C(=O)C4)C(N)=O)NC(=O)[C@H](Cc2cn(C)c3ccccc23)NC(=O)[C@H](CCCCNC(=O)N2CCN(CC(=O)O)CC2)NC(=O)[C@H](Cc2cn(C)c3c(Cl)cccc23)NC(=O)[C@@H]1CCC(=O)O [PDC_EphA2-00026606-C301] ({CH2CO}-[dPhe(3-CONH2)][NMe3Pal]N[Gly(cBu)][Aad](NH2)[NMeE][Trp(1-Me,7-Cl)]K([CO-Piperazinyl(4-CH2COOH)])[Trp(1-Me)]CK(DOTA(Lu))-NH2; thioether N-10)",< 1,
"CN1C(=O)[C@H](CCC(=O)NC[C@H](O)[C@@H](O)[C@H](O)[C@H](O)CO)NC(=O)[C@H](C2CCC2)NC(=O)[C@H](CC(N)=O)NC(=O)[C@H](Cc2cccnc2)N(C)C(=O)[C@@H](Cc2cccc(C(N)=O)c2)NC(=O)CSC[C@@H](C(=O)N[C@@H](CCCCNC(=O)CN2CCN3CCN4CCN(CC2)CC(=O)[O][Lu]([O]C(=O)C3)[O]C(=O)C4)C(N)=O)NC(=O)[C@H](Cc2cn(C)c3ccccc23)NC(=O)[C@H](CCCCNC(N)=O)NC(=O)[C@H](Cc2cn(C)c3c(Cl)cccc23)NC(=O)[C@@H]1CCC(=O)O [PDC_EphA2-00026607-C301] ({CH2CO}-[dPhe(3-CONH2)][NMe3Pal]N[Gly(cBu)]E(NH(1-deoxy-D-glucityl))[NMeE][Trp(1-Me,7-Cl)][hCit][Trp(1-Me)]CK(DOTA(Lu))-NH2; thioether N-10)",< 1,
"C[C@@H](O)[C@@H]1NC(=O)[C@H](Cc2cn(C)c3ccccc23)NC(=O)[C@H](CCC(=O)NC[C@H](O)[C@@H](O)[C@H](O)[C@H](O)CO)NC(=O)[C@H](Cc2cn(C)c3c(Cl)cccc23)NC(=O)[C@H](CC(N)=O)N(C)C(=O)[C@H](CCCC(N)=O)NC(=O)[C@H](C2CCC2)NC(=O)[C@H](CC(N)=O)NC(=O)[C@H](Cc2cccnc2)N(C)C(=O)[C@@H](Cc2cccc(C(N)=O)c2)NC(=O)CSC[C@@H](C(=O)N[C@H](CCCCNC(=O)CN2CCN3CCN4CCN(CC2)CC(=O)[O][Lu]([O]C(=O)C3)[O]C(=O)C4)C(N)=O)NC(=O)[C@H](CCCC(N)=O)NC1=O [PDC_EphA2-00022593-C302] ({CH2CO}-[dPhe(3-CONH2)][NMe3Pal]N[Gly(cBu)][Aad](NH2)[NMeN][Trp(1-Me,7-Cl)]E(NH(1-deoxy-D-glucityl))[Trp(1-Me)]T[Aad](NH2)C[dK](DOTA(Lu))-NH2; thioether N-12)",< 1,
"CC(C)C[C@@H]1NC(=O)[C@H](CC(N)=O)NC(=O)[C@H](Cc2cccnc2)N(C)C(=O)[C@@H](C)NC(=O)CSC[C@@H](C(N)=O)NC(=O)[C@H](CCCC(N)=O)NC(=O)[C@H]([C@@H](C)O)NC(=O)[C@H](Cc2cn(C)c3ccccc23)NC(=O)[C@H](CCCCNC(=O)CN2CCN3CCN4CCN(CC2)CC(=O)[O][Lu]([O]C(=O)C3)[O]C(=O)C4)NC(=O)[C@H](Cc2cn(C)c3c(Cl)cccc23)NC(=O)[C@H](CCC(=O)O)N(C)C(=O)[C@H](CCCC(N)=O)NC1=O [PDC_EphA2-00026632] ({CH2CO}-[dA][NMe3Pal]NL[Aad](NH2)[NMeE][Trp(1-Me,7-Cl)]K(DOTA(Lu))[Trp(1-Me)]T[Aad](NH2)C-NH2; thioether N-12)",< 1,
